Ends that are not written are not given here. Peptide text beside a SMILES is read from it.
Key:
H2O2-induced HUVECs [1] = test: NO production in H2O2-induced HUVECs (assay kit); assay type: cell-based, human; details: 200 μM pretreatment, 300 μM H2O2, model 15.54 ± 0.68 μM, mean ± SD, n = 3
Protocol: (§1) The HUVECs were cultured for 24 h in a 96-well plate. Subsequently, the supernatant was aspirated and 20 μL of GSH (200 μM) and ACEi peptides (100 or 200 μM) were added in the protection groups, respectively. After 24 h, ACEi peptides were removed and H2O2 with the final concentration of 300 μM was added into the damage and protection groups for incubating 24 h.
(§2) The level of ROS was determined using DCFH2-DA assay and expressed as % control ([50]). The levels of SOD (U/mgprot), GSH-Px (U/mgprot), NO (μmol/L), and MDA (nmol/mgprot) were measured using assay kits according to manufacturer’ protocols.

HUVECs [2] = test: ET-1 secretion in HUVECs (assay kit); assay type: cell-based, human; details: for ET-1 content in NE-treated HUVECs: peptide 200 μM plus NE, NE alone 73.57 ± 3.09 pg./mL; for ET-1 content in HUVECs: peptide 200 μM, control 55.37 ± 2.53 pg./mL, mean ± SD, n = 3, SD
Protocol: (§3) HUVECs were cultured in DMEM supplemented with 100 µg/mL streptomycin, 10% FBS (v/v), and 100 U/mL penicillin at 37°C in a humidified 5% CO2 atmosphere for 24 h.
(§4) After treating with ACEi peptides (TRP3, TRP6, TRP9, or TRP12, respectively) for 24 h, NO and ET-1 contents were separately determined by employing human NO and ET-1 assay kit as per manufactures’ protocol ([18]).

HUVECs [3] = test: NO production in HUVECs (assay kit); assay type: cell-based, human; details: for NO content in NE-treated HUVECs: peptide 200 μM plus NE, NE alone 18.59 ± 0.82 μM; for NO level in HUVECs: peptide 200 μM, 24 h, control 33.68 ± 0.96 μM, mean ± SD, n = 3, SD
Protocol: as §3, §4

H2O2-induced HUVECs [4] = test: SOD activity in H2O2-induced HUVECs (assay kit); assay type: cell-based, human; details: 200 μM pretreatment, 300 μM H2O2, model 108.57 ± 7.56, mean ± SD, n = 3
Protocol: as §1, §2

H2O2-induced HUVECs [5] = test: MDA content in H2O2-induced HUVECs (assay kit); assay type: cell-based, human; details: 200 μM pretreatment, 300 μM H2O2, model 27.94 ± 1.06, mean ± SD, n = 3
Protocol: as §1, §2

ACE = target: T1, ACE (Oryctolagus cuniculus, UniProt P12822); test: ACE inhibitory (ACEi) activity, FAPGG substrate, hippuric acid by HPLC at 228 nm; assay type: biochemical; details: at 1.5 mg/mL, mean ± SD, n = 3
T1 sequence (P12822 34-1310): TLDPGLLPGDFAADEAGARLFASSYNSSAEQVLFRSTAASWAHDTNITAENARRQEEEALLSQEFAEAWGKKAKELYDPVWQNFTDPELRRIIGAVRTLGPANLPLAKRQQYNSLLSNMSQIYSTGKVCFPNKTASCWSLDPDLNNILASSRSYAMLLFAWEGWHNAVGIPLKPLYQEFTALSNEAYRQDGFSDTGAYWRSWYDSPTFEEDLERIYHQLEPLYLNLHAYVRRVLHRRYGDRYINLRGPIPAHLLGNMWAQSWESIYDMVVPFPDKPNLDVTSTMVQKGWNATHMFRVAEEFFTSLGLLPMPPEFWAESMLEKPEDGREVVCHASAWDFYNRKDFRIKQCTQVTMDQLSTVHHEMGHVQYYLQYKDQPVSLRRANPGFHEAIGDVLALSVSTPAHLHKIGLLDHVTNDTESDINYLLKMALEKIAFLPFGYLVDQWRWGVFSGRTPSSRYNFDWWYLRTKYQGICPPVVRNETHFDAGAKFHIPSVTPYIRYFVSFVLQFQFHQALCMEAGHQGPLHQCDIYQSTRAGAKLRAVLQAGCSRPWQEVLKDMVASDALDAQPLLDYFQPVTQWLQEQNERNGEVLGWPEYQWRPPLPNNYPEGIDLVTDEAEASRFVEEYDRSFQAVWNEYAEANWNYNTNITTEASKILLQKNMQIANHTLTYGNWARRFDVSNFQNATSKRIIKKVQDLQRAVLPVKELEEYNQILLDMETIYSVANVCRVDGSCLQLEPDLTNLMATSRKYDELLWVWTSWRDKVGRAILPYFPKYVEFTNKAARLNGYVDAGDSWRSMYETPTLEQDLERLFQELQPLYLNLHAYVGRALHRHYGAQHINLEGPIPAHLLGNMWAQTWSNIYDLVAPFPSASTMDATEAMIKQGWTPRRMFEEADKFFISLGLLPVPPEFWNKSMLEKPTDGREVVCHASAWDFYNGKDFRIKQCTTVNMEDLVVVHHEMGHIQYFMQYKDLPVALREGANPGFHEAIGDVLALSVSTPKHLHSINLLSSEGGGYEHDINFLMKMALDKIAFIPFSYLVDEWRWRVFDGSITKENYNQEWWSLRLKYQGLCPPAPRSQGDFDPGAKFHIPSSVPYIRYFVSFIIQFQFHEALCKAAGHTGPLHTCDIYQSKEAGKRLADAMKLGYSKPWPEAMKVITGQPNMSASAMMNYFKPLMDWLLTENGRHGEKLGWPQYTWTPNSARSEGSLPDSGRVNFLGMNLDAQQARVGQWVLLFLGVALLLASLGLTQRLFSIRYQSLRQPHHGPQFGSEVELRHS
Protocol: The ACEi activity was measured by employing FAPGG as the substrate with the following modifications reported by Zhao et al. ([18]). In brief, the initial assay volume consisted of 50 μL of the substrate (3 mM), 50 μL of the ACE enzyme solution containing 1.25 mU of declared enzyme activity, and 50 μL of assay sample. All these solutions were incubated for 30 min at 37°C in a water bath first without mixing and then for an additional 30 min after mixing. ACE activity was stopped by 150 μL of glacial acetic acid. After that, the reaction mixture was separated by HPLC at 228 nm to determine the hippuric acid (HA) content produced due to ACE activity on the substrate. The control reaction mixture contained 50 μL of buffer instead of the assay sample and the control was expected to liberate the maximum amount of HA from the substrate due to uninhibited ACE activity. The percent inhibition of ACE activity was calculated as follows:
Inhibition activity(%)=[(HAcontrol−HAsample)/HAcontrol]×100%.
The IC50 value is the concentration of peptide inhibiting 50% activity of ACE.

H2O2-induced HUVECs [6] = test: Apoptosis rate of H2O2-induced HUVECs, Hoechst 33342; assay type: cell-based, human; details: 200 μM pretreatment, 300 μM H2O2, model 214.03 ± 7.11% control, mean ± SD, n = 3
Protocol: as §1
Cell treatments with ACEi peptides, GSH, and H2O2 were according to the above method ([50]). The morphology of HUVECs was observed and photographed using an inverted microscope (Nikon Corporation, Kyoto, Japan). The percentage of apoptotic HUVECs was analyzed using previous methods ([17], [50]).

H2O2-induced HUVECs [7] = test: GSH-Px activity in H2O2-induced HUVECs (assay kit); assay type: cell-based, human; details: 200 μM pretreatment, 300 μM H2O2, model 26.95 ± 1.09, mean ± SD, n = 3
Protocol: as §1, §2

H2O2-induced HUVECs [8] = test: ROS level in H2O2-induced HUVECs, DCFH2-DA assay; assay type: cell-based, human; details: 200 μM pretreatment, 300 μM H2O2, model 146.6 ± 3.81%, mean ± SD, n = 3
Protocol: as §1, §2

HUVECs [9] = test: Viability of HUVECs, MTT method; assay type: cell-based, human
Protocol: as §3
(§5) The viability of HUVECs treated by TRP3, TRP6, TRP9, and TRP12 was determined using MTT method. HUVECs were seeded in the 96-well plates, cultured for 24 h, and treated with ACEi peptides (100, 200, and 300 μM) at 37° C for 24 h. MTT (final content of 2 mg/mL) was added into cell culture. After 4 h, DMSO was added into each well and monitored at 490 nm. The cell viability (% control) was calculated.

H2O2-induced HUVECs [10] = test: Viability of H2O2-induced HUVECs (oxidative damage model); assay type: cell-based, human; details: for cell viability of H2O2-induced HUVECs: 200 μM pretreatment 24 h, then 300 μM H2O2 24 h, model group 50.31 ± 2.19%, mean ± SD, n = 3, SD
Protocol: as §5
The oxidative damage model of HUVECs was established according to the previous method ([50]). HUVECs were seeded in the 96-well plates, cultured for 24 h, and treated with […] H2O2 at 37°C.
as §1

Compound	NO content (H2O2-induced HUVECs [1]) [µM]	ET-1 content in NE-treated HUVECs (HUVECs [2]) [pg/mL]	ET-1 content in HUVECs (HUVECs [2]) [pg/mL]	NO content in NE-treated HUVECs (HUVECs [3]) [µM]	NO level in HUVECs (HUVECs [3]) [µM]	SOD activity (H2O2-induced HUVECs [4]) [U/mg prot]	MDA content (H2O2-induced HUVECs [5]) [nmol/mg prot]	ACEi rate (ACEi activity) (ACE) [%]	total apoptosis ratio (H2O2-induced HUVECs [6]) [% control]	GSH-Px activity (H2O2-induced HUVECs [7]) [U/mg prot]	ROS level (H2O2-induced HUVECs [8]) [% control]	cell viability (HUVECs [9]; 300 µM, SD) [%]	cell viability of H2O2-induced HUVECs (H2O2-induced HUVECs [10]) [%]	cell viability (HUVECs [9]; 300 μM, 24 h, MTT, % control, mean ± SD, n = 3) [%]	viability of HUVECs (H2O2-induced HUVECs [10]; H2O2 300 μM alone (model establishment)) [%]
CC[C@H](C)[C@H](N)C(=O)N[C@@H](CCCCN)C(=O)N[C@@H](CO)C(=O)N[C@@H](Cc1c[nH]c2ccccc12)C(=O)O [TRP6, Ile-Lys-Ser-Trp] (H-IKSW-OH; N-terminus and C-terminus assumed)	21.26 ± 0.59	55.27 ± 2.19	44.68 ± 1.69	26.51 ± 1.06	46.25 ± 1.39	160.02 ± 9.04	20.52 ± 0.92	75.41 ± 2.56	171.21 ± 6.92	42.35 ± 1.86	127.5 ± 4.32				
H-WGESF-OH [TRP3, Trp-Gly-Glu-Ser-Phe]	20.38 ± 0.67	59.74 ± 2.42	46.87 ± 2.03	23.69 ± 1.18	46.52 ± 1.29	154.58 ± 3.94	21.76 ± 0.94	69.54 ± 3.09	173.12 ± 5.11	38.46 ± 1.25	128.7 ± 5.2	86.72 ± 4.45			
WSPGF [TRP12, Trp-Ser-Pro-Gly-Phe]	22.09 ± 0.81	54.71 ± 2.57	45.28 ± 1.88	26.79 ± 1.34	46.32 ± 2.03		21.08 ± 0.92	78.24 ± 2.81	162.08 ± 5.94	39.75 ± 1.63	123.7 ± 3.21				
CSCC[C@H](NC(=O)[C@H](Cc1c[nH]cn1)NC(=O)[C@H](CO)NC(=O)[C@@H](N)Cc1ccc(O)cc1)C(=O)O [TRP9, Tyr-Ser-His-Met] (H-YSHM-OH)	23.64 ± 0.82	53.27 ± 2.34	41.26 ± 2.09	28.79 ± 0.78	50.34 ± 1.45		19.88 ± 0.75	83.49 ± 3.42	135.37 ± 4.28	45.36 ± 2.07	122.4 ± 4.47		67.85 ± 3.05	91.27 ± 4.05	
N[C@@H](CCC(=O)N[C@@H](CS)C(=O)NCC(=O)O)C(=O)O [GSH, Glutathione, reference compound]	26.98 ± 1.05						17.83 ± 0.87		124.52 ± 4.82				78.33 ± 3.08		
OO [H2O2]															49.65 ± 1.68

— article PMC10369073, “Production, identification, in silico analysis, and cytoprotection on H2O2-induced HUVECs of novel angiotensin-I-converting enzyme inhibitory peptides from Skipjack tuna roes” (Frontiers in Nutrition, 2023)
